{"source": "patent US20230346884A1", "about": "“Molecular Targets for Modulation of Dissociative and Associative States” (The Board of Trustees of the Leland Stanford Junior …, priority 2020, published 2023)", "key": {"[1]": {"system": "retrosplenial cortex (RSP)", "assay": "Widefield (pan-cortical) imaging of cortical activity in GCaMP6s mice", "description": "(§1) (2 mg/kg), lidocaine (topical), LSD ((+)-Lysergic acid diethylamide (+)-tartrate (2:1), 0.3 mg/kg), and diazepam (2 mg/kg). […] For anti-depressant effects, human doses are typically 0.3-1 mg/kg, and in mouse 3-10 mg/kg.\nAs described^8, mice were anesthetized with isoflurane, the scalp was removed, the skull cleaned and dried, and a custom head-plate was cemented to contacts over the cerebellum and in front of the olfactory bulb. The skull was then covered in a thin layer of cyanoacrylate glue (Apollo 2000, Cyberbond), clear dental acrylic (Ortho-Jet, Lang Dental), and clear nail polish (Electron Microscopy Services). […] (0.1 mg/kg) was injected subcutaneously for pain management. […] Imaging was performed on a custom-built fluorescence microscope designed for high light collection efficiency and large field of view. […] Alternating 410 nm and 488 nm illumination for non-Ca^2+ dependent artifact removal was controlled using a microcontroller (Arduino) slaved to the frame output trigger of the camera.\nAnalysis was performed using custom MATLAB (MathWorks) scripts. Widefield imaging videos were registered to a 2D top-projection atlas generated from the annotated Allen Brain Atlas volume, version CCFv2, in MATLAB (MathWorks), using an affine transformation computed from four manually selected control points. Each video was DF/F normalized, using the median for each pixel over the entire time series as F. The 410 nm channel was then temporally smoothed using a moving average (width=400 ms). The smoothed 410 nm DF/F signal for each pixel was regressed onto the 488 nm DF/F signal for the corresponding pixel, and the regression coefficients were used to scale the 410 nm channel to the 488 nm channel. This scaled 410 nm DF/F signal was then subtracted from the 488 nm DF/F signal to produce a normalized signal for each pixel. For quantification, activity traces were extracted from points centered in five cortical regions (visual, somatosensory, parietal, motor, retrosplenial) on the left hemisphere of the brain. The video data was Gaussian smoothed spatially (radius=2 pixels). Similarly, for fiber photometry recordings, the 410 nm signal was regressed onto the 488 nm signal, the 410 nm signal was scaled by the regression coefficients, and then subtracted from the 488 nm signal."}, "[2]": {"system": "retrosplenial cortex (RSP) neurons", "assay": "Two-photon imaging of RSP", "type": "in vivo, mouse", "procedure": "Mice were anesthetized with isoflurane and the skull above retrosplenial cortex was removed and replaced with a 7 mm circular glass coverslip. For layer 1 experiments, ThylGcaMP6s mice were used. For layer 2/3 experiments, Cux2-CreER;Ai148 mice were used (tamoxifen dissolved in corn oil was injected intraperitoneally at 0.1 mg/g at least 2 weeks prior to imaging). For layer 5 experiments, Rbp4-Cre mice were injected locally in retrosplenial with 800 nL AAVdj-Ef1a-DIO-GCaMP6f (titer 5E12) at stereotactic coordinates (−3AP, 0.5 ML, −0.6DV). Mice were given >=1 week to recover before imaging. Awake, head-fixed imaging was performed on a standard two photon microscope (NeuroLabWare, Los Angeles, CA). A 16×0.8 NA Nikon objective was immersed in clear ultrasound gel for imaging (Aquasonic, Parker Laboratories); frame rate of 30 Hz. Although we observed oscillations in RSP with 50 mg/kg, we were concerned that 50 mg/kg may be too low a dose to sensitively detect a potentially weaker signal in visual cortex or layer 2/3, and so we used 80 mg/kg in these experiments.\nTwo-photon tiff stack videos were registered to the average image using the TurboReg ImageJ plug-in using rigid body transformations. […] Contaminating neuropil signal was estimated from an annulus surrounding each soma mask and removed using the function F(t)=Fsoma(t)−0.3*Fneuropil(t), where Fsoma(t) is the somatic DF/F and Fneuropil(t) is the DF/F from an annulus 4 pixels wide surrounding each soma mask. The resulting traces were detrended and z-scored. The full frame fluorescence (used for quantifying layer 1 neuropil oscillations) was computed by summing all of the pixels in each frame on each time point, and then computing DF/F the same way, with no neuropil subtraction step.\nEach trace (corresponding to either a fiber photometry signal, a cellular two-photon signal, a widefield regional centroid, a widefield pixel, an sEEG trace, or a smoothed spike rate Neuropixels trace) was z-scored, and the power spectral density (PSD) was then estimated using Welch's method (pwelch( ) in Matlab), with a window size of 10*fs (15*fs for human sEEG) where fs is the sampling rate of the signal. The average band power within a specified band (i.e. 1-3 Hz) was then computed by integrating the PSD estimate (bandpower in Matlab). For displaying the traces of individual cells, traces were each zscored by subtracting the mean value of the trace (across the whole recorded time window) and dividing by the standard deviation of the trace. Unless otherwise indicated, the PSD was computed across the time window from minutes 10 to 11 post-injection."}, "[3]": {"system": "deep RSP neurons", "assay": "32-channel two-shank silicon probe recording in deep RSP", "type": "in vivo, mouse", "conditions": "50 mg/kg ketamine", "procedure": "Mice were anesthetized with isoflurane, a small craniotomy (˜2 mm diameter) was performed above retrosplenial cortex, and a custom head-plate implanted. The dura was gently removed, and then covered with Kwik-Cast Sealant (World Precision Instruments). A skull screw was implanted and secured with cement in the right frontal skull bone. Mice were given 1-2 hours to recover. […] The deepest tip of the electrode was 800-1000 μm from the brain surface for all recordings.\nExtracellular electrophysiological data were recorded using 32 channel acute silicon probes (ASSY-37 P-1, Cambridge Neurotech) acquired at 30 kHz. Following common average referencing, well-isolated single units were identified using KiloSort and Phy. Data were analyzed using custom Matlab scripts. Instantaneous firing rate was computed using 1 ms bins. We used a Hidden Markov Model with two states to label ON and OFF states. ON states were considered to represent bursts, and OFF states were inter-burst intervals. We fit the emission and transition parameters of the model using the Baum-Welch algorithm (Matlab hmmtrain with a convergence threshold of 1 e-6 and initial guesses of transition matrix: [0.95, 0.05; 0.05, 0.95] and emission: [0.5, 0.5; […]]), and then estimated the state assignment at each time point using the Viterbi algorithm (Matlab hmmviterbi). Various initial guesses were tested, and they yielded the same or similar model fit. For population analyses, a bin size of 2 was used. In FIG. 10, we are looking at the number of spikes in each burst, which can vary depending on the neuron being recorded, so we included every burst for every neuron. To quantify the consistency of the sequential onset of activation across bursts, we ranked each unit by its onset time for each burst. We then ordered the units according to their median rank across bursts. For each burst, we fit a linear model between the ranking in that burst and the median rank. The distribution of correlation coefficients was then plotted across bursts for each mouse and treatment condition."}, "[4]": {"system": "mice", "assay": "Righting reflex assay", "type": "in vivo, mouse", "text": "Righting Reflex Assay: Mice were held at the neck and tail, rotated to supine position on a flat surface, and quickly released. Time to right was quantified as moment of release to moment when all 4 legs touched the ground. A five second threshold was used to classify righting success (less than 5 seconds) from failure (more than 5 seconds). […] Illumination began for 30 seconds, and then the mouse was swiftly inverted onto the flat surface."}, "[5]": {"system": "mouse", "assay": "Ketamine dose-effect relationship in mouse", "description": "as §1"}, "[6]": {"system": "mice", "assay": "Resident-intruder social interaction assay", "type": "in vivo, mouse", "procedure": "Social Interaction Assay: Resident-intruder social interaction was recorded for two minutes. Interactions were defined as close physical proximity behaviors, including sniffing, touching, and following. […] Illumination began 30 seconds before the same-sex intruder mouse was introduced."}, "[7]": {"system": "humans", "conditions": "human; cited from earlier work"}, "[8]": {"system": "mice", "assay": "Hot plate test", "description": "Hot Plate Test: Mice were placed on the hot plate (Bioseb), which was set to 55° C. and surrounded by a clear circular perimeter. Mouse activity was recorded using two cameras from different angles. The experiment ended when the mouse jumped to escape or 90 seconds had elapsed. Care was taken to clean and dry the hot plate apparatus between animals. For optogenetic experiments, mice were connected to patch cords and then returned to a holding cage. Illumination began 30 seconds before mice were placed on the hot plate."}, "[9]": {"system": "mice", "assay": "Observation for seizure-like signs after ketamine", "type": "in vivo, mouse", "conditions": "dissociative doses of ketamine", "text": "One characteristic of seizures is increased synchrony. While the ketamine-induced rhythm involved increased synchrony in neuronal firing, the initiation, spread, maintenance/termination, and behavior were distinguishable from typical seizures."}, "[10]": {"conditions": "controls (wild-type), 50 mg/kg ketamine"}}, "data": [{"smiles": "CNC1(c2ccccc2Cl)CCCCC1=O", "note": "(stereo not drawn) [ketamine]", "values": [{"measurement": "Time over which ketamine-induced oscillation decayed", "setting": "[1]; Supplementary Note 2", "value": "~15", "unit": "min"}, {"measurement": "Time over which ketamine-induced oscillation emerged", "setting": "[1]; Supplementary Note 2", "value": 2, "unit": "min"}, {"measurement": "Ketamine-induced 1-3 Hz movements", "setting": "[1]; ketamine 50 mg/kg i.p.", "value": "no ketamine-induced 1-3 Hz movements were observed"}, {"measurement": "Time for rhythm to emerge", "setting": "[1]; ketamine 50 mg/kg i.p.", "value": "≤ 120", "unit": "s"}, {"measurement": "Time for rhythm to return to baseline", "setting": "[1]; ketamine 50 mg/kg i.p.", "value": "~45", "unit": "min"}, {"measurement": "Magnitude of rhythm on repeated days", "setting": "[1]; ketamine, five consecutive days", "value": "exhibited similar magnitude across five consecutive days"}, {"measurement": "RSP activity-correlations with other dorsal-cortical regions", "setting": "[1]; subanesthetic ketamine", "value": "reduced RSP activity-correlations with all other dorsal-cortical regions"}, {"measurement": "Spread of the ketamine-rhythm", "setting": "[1]; to other layers or nearby cortical regions", "value": "did not spread beyond layer 5 neurons in retrosplenial cortex"}, {"measurement": "Cortical activity pattern: 1-3 Hz oscillation localized to retrosplenial cortex (RSP)", "setting": "[1]; widefield imaging, i.p., ketamine 50 mg/kg subanesthetic dose, other drugs at doses of b234", "value": "a 1-3 Hz oscillation emerged in retrosplenial cortex (RSP), but not in any other cortical region"}, {"measurement": "Oscillation / population synchrony in layer 2/3 RSP neurons", "setting": "[2]; Cux2-CreER mice, ketamine", "value": "neither oscillating neurons nor population synchrony were observed"}, {"measurement": "Oscillation / population synchrony in layer 5 RSP neurons", "setting": "[2]; Rbp4-Cre mice, ketamine", "value": "exhibited synchronous activity"}, {"measurement": "Hedge's g effect-size, mean 1-3 Hz power before/after ketamine, layer 2/3 RSP cells (FIG. 1I)", "setting": "[2]; n=5 mice", "value": "−0.46"}, {"measurement": "Hedge's g effect-size, mean 1-3 Hz power before/after ketamine, layer 5 RSP cells (FIG. 1I)", "setting": "[2]; n=5 mice", "value": 3.16}, {"measurement": "Oscillation in superficial neuropil, RSP vs neighboring visual cortex", "setting": "[2]; two-photon, cranial window, 80 mg/kg", "value": "observed the oscillation in RSP but not neighboring visual cortex"}, {"measurement": "Duration of silent states between bursts", "setting": "[3]", "value": "~250", "unit": "ms"}, {"measurement": "Duration of synchronous bursts of deep RSP neurons", "setting": "[3]", "value": "~250", "unit": "ms"}, {"measurement": "Participation of units in burst events", "setting": "[3]", "value": "nearly all identified units participated in every burst event"}, {"measurement": "Spikes per burst of individual units", "setting": "[3]", "value": "5-10 spikes/burst"}, {"measurement": "Righting-reflex test for consciousness", "setting": "[4]; anesthetic ketamine 200 mg/kg", "value": "abolished by anesthetic ketamine"}, {"measurement": "Righting-reflex test for consciousness", "setting": "[4]; subanesthetic ketamine doses", "value": "preserved in all animals"}, {"measurement": "Righting of postural inversion", "setting": "[4]; wild-type and knockout mice, ketamine", "value": "all mice successfully-righted postural inversion"}, {"measurement": "Lowest tested dose causing the oscillation and behavioral effects", "setting": "[5]", "value": 25, "unit": "mg/kg"}, {"measurement": "Resident-intruder social interactions vs. wild-type", "setting": "[6]; both channel-knockouts (HCN1, GRIN1), ketamine", "value": "modestly-recovered"}, {"measurement": "Resident-intruder interactions", "setting": "[6]; ketamine >=25 mg/kg", "value": "suppressed"}, {"measurement": "Dose at which potent dissociation is consistently reported", "setting": "[7]", "value": "2 to 3", "unit": "mg/kg"}, {"measurement": "Doses for anti-depressant effects", "setting": "[7]", "value": "0.3 to 1", "unit": "mg/kg"}, {"measurement": "Affective behavior", "setting": "[8]; GRIN1 knockouts, ketamine", "value": "without recovery of affective behavior"}, {"measurement": "Affective paw-licking", "setting": "[8]; HCN1-KO mice with RSP Cre-virus, 50 mg/kg ketamine", "value": "strikingly restored affective paw-licking"}, {"measurement": "Affective paw-licking", "setting": "[8]; [10]", "value": "abolished affective paw-licking"}, {"measurement": "Reflexive paw-flicks", "setting": "[8]; [10]", "value": "preserving reflexive paw-flicks"}, {"measurement": "Affective behaviors", "setting": "[8]; ketamine 13 mg/kg", "value": "consistently preserved at 13 mg/kg"}, {"measurement": "Affective behaviors", "setting": "[8]; ketamine 25 mg/kg", "value": "selectively abolished at 25 mg/kg"}, {"measurement": "Affective/emotional defensive behavior (paw-lick)", "setting": "[8]; ketamine at 25 and 50 mg/kg", "value": "abolished affective/emotional"}, {"measurement": "Motivational defensive behavior (jump-to-escape)", "setting": "[8]; ketamine at 25 and 50 mg/kg", "value": "abolished"}, {"measurement": "Reflexive responses (paw-flick)", "setting": "[8]; ketamine dose series", "value": "did not reduce reflexive responses"}, {"measurement": "Seizure-like signs", "setting": "[9]", "value": "no rigidity, convulsive movements, absence-like states, or salivation/rearing/falling were observed"}]}]}
